Reference: patent US20050165074A1, “Amide derivatives as C-KIT modulators” (Ambit Biosciences Corporation, priority 2003, published 2005)

These molecules were tested against KIT (DKIN) (Homo sapiens, UniProt P10721) (assay: Binding constant (Kd) measurement, phage-displayed kinase competition binding assay, KIT (DKIN)). Conditions: c-Kit, DKIN construct.
Sequence of KIT (DKIN) (P10721 589-937 limits assumed): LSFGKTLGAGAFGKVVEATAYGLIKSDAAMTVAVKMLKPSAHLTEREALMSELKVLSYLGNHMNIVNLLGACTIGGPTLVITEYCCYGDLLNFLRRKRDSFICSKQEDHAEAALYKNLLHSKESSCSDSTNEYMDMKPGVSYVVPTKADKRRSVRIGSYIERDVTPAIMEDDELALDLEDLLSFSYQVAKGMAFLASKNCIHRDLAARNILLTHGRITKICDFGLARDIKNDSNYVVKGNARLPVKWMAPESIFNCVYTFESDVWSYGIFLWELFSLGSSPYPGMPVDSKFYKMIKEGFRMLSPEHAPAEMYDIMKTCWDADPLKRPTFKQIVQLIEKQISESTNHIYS
Source text: (§1) The term “ND” represents non-determined values.
In the case of `COc1cccc2cc([C@H](C)C(=O)Nc3cc(C(C)(C)C)on3)ccc12`, the Kd is reported as 1 to 10 µM.
With `COc1ccc(CC(=O)Nc2cc(C(C)(C)C)no2)cc1` the Kd was 0.1 to 1 µM.
`CC(C)(C)c1cc(NC(=O)Cc2ccc(OCc3ccccc3)cc2)on1` was tested, and the Kd was 0.1 to 1 µM.
`CC(C)(C)c1cc(NC(=O)Cc2ccc(Cl)cc2)on1` gave a Kd of 1 to 10 µM.
With `CC(C)(C)c1cc(NC(=O)Cc2ccc(F)cc2)on1` the Kd was 1 to 10 µM.
Molecule `CC(C)(C)c1cc(NC(=O)Cc2ccc(Br)cc2)on1` has a Kd of 0.1 to 1 µM.

These molecules were tested against KIT (JMminus) (Homo sapiens, UniProt P10721) (assay: Binding constant (Kd) measurement, phage-displayed kinase competition binding assay, KIT (JMminus)). Conditions: c-Kit, JMminus construct.
Sequence of KIT (JMminus) (P10721 589-937 limits assumed): as above
Source text: as §1
Work on `Cn1cc(C(=O)Nc2ccc(CC(=O)Nc3cc(C(C)(C)C)on3)cc2)c2ccccc21` yielded a Kd of less than 0.1 µM.
`CC(C)(C)c1cc(NC(=O)Cc2ccc(NC(=O)c3cnc4ccccc4c3)cc2)no1` showed a Kd of less than 0.1 µM.
Work on `Cc1nn(C)c(Cl)c1C(=O)Nc1ccc(CC(=O)Nc2cc(C(C)(C)C)on2)cc1` yielded a Kd of less than 0.1 µM.
`CC(C)(C)c1cc(NC(=O)Cc2ccc(NC(=O)c3cccc4cccnc34)cc2)no1` showed a Kd of 0.1 to 1 µM.
In the case of `CC(C)(C)c1cc(NC(=O)Cc2ccc(NC(=O)c3ccc4cnccc4n3)cc2)no1`, the Kd is reported as less than 0.1 µM.
Molecule `CSc1ncc(Br)c(C(=O)Nc2ccc(CC(=O)Nc3cc(C(C)(C)C)on3)cc2)n1` has a Kd of less than 0.1 µM.
